From patent US5837516A, “Subtilisin variants capable of cleaving substrates containing basic residues” (Genentech, Inc., priority 1995, dated 1998)
Positions count from the first letter of the chain named. Residues, ends and D or L forms follow the SMILES beside them.

What was measured:
[1] = target: T1, subtilisin BPN' variant G166D (Bacillus amyloliquefaciens, UniProt P00782, G273D); assay: Kinetic analysis, hydrolysis of suc-AAPX-pna substrates; type: biochemical; conditions: Lys P1 versus Phe P1 substrate
T1 construct: correct folding and maturation of subtilisin requires autolytic cleavage of its propeptide; made in house; host or cells: Bacillus subtilis BG2036 (protease-deficient), secreted
From the text: To probe the effects of the G166E and G166D on specificity at the P1 position we used substrates having the form suc-AAPX-pna (SEQ ID NO: 69) where X was either Lys (SEQ ID NO. 58), Arg (SEQ ID NO. 59), Phe (SEQ ID NO. 56), Met (SEQ ID NO. 60) or Gln (SEQ ID NO. 61). Whereas the wild-type enzyme preferred Phe>Met>Lys>Arg>Gln, the G166E preferred Lys^~ Phe>Arg^~ Met>Gln, and G166D preferred Lys>Phe^~ Arg^~ Met>Gln. Thus, both the acidic substitutions at position 166 caused a shift in preference for basic residues at the P1 site, as previously reported (Wells, J. A., Powers, D. B., Bott, R. R., Graycar, T. P.and Estell, D. A. (1987a), Proc. Natl. Acad. Sci. USA 84:1219-1223).
Subtilisins were assayed by measuring the initial rates of hydrolysis of p-nitroanilide tetrapeptide substrates in 0.4 mL 20 mM Tris-Cl pH 8.2, 4% (v/v) dimethyl sulfoxide at (25±0.2)° C. as described previously (Estell, D. A., Graycar, T. P., Miller, J. V., Powers, D. B., Burnier, J. P., Ng, P. G. and Wells, J. A. (1986)Science 233:659-663). Enzyme concentrations (E)0 were determined spectrophotometrically using E280 nm 0.1%=1.17 (Matsubara, H.; Kasper, C B.; Brown, D. M.; and Smith, E. L. (1965)J. Biol. Chem.,240:1125-1130.), and were typically 5-50 nM in reactions. Initial rates were determined for nine to twelve different substrate concentrations over the range of 0.001-2.0 mM. […]

[2] = target: T2, subtilisin BPN' variant N62D/Y104D/G166D (SEQ ID NO: 75) (Bacillus amyloliquefaciens, UniProt P00782, G273D/N169D/Y211D); assay: Kinetic analysis, hydrolysis of succinyl-tetrapeptide-pNA substrates; type: biochemical; conditions: relative to succinyl-RAKR-pNA
T2 construct: the mature enzyme +1 to +275; made in house; host or cells: Bacillus subtilis BG2036 (protease-deficient), secreted
T2 sequence (P00782 108-382 N169D/Y211D/G273D): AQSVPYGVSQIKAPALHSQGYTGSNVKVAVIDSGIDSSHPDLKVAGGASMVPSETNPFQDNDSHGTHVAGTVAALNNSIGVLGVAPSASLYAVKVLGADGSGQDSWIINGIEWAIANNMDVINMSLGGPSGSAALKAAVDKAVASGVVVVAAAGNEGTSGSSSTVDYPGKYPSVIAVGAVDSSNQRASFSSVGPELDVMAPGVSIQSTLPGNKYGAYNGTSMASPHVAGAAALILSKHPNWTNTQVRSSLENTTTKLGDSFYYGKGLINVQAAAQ
Experimental: The mature N62D/Y104D/G166D variant was purified and analyzed for its ability to hydrolyze several tetrapeptide-pNA substrates.
Kinetic analysis of WT, N62D/G166D, and N62D/Y104D/G166D subtilisin BPN'
Subtilisins were assayed by measuring the initial rates of hydrolysis of p-nitroanilide tetrapeptide substrates in 0.4 mL 20 mM Tris-Cl pH 8.2, 4% (v/v) dimethyl sulfoxide at (25±0.2)° C. as described previously (Estell, D. A., Graycar, T. P., Miller, J. V., Powers, D. B., Burnier, J. P., Ng, P. G. and Wells, J. A. (1986)Science 233:659-663). Enzyme concentrations (E)0 were determined spectrophotometrically using E280 nm 0.1%=1.17 (Matsubara, H.; Kasper, C B.; Brown, D. M.; and Smith, E. L. (1965)J. Biol. Chem.,240:1125-1130.), and were typically 5-50 nM in reactions. Initial rates were determined for nine to twelve different substrate concentrations over the range of 0.001-2.0 mM. Plots of initial rates (v) versus substrate concentration (S) were fitted to the Michaelis-Menton equation, [formula] to determine the kinetic constants kcat and Km (Fersht, A. in "Enzyme Structure and Mechanism", Second edition, Freeman and Co., N.Y.) using the program Kaleidagraph (Synergy Software, Reading, Pa.).

subtilisin = target: T3, subtilisin (Bacillus amyloliquefaciens, UniProt P00782); conditions: Estell et al. (1986) Science 233:659-663; cited from earlier work
T3 sequence (P00782 108-382): T2 sequence (P00782 108-382 N169D/Y211D/G273D) with D62N, D104Y, D166G

T1 sequence (P00782 108-382 G273D): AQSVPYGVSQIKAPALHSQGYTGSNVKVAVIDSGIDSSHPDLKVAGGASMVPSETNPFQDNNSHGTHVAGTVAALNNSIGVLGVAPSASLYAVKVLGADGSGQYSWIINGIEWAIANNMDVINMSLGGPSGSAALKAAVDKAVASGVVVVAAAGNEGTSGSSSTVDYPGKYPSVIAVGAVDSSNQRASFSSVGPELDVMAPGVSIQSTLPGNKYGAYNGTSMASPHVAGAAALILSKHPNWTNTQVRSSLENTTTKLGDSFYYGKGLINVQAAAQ

SMILES | ratio of catalytic efficiencies, times faster cleaved than the Phe P1 substrate [1] | catalytic efficiency (kcat/Km), fold less efficiently hydrolyzed than succinyl-RAKR-pNA [2] | kcat /Km ratio (subtilisin) [M⁻¹ s⁻¹]
C[C@H](NC(=O)CCC(=O)O)C(=O)N[C@@H](C)C(=O)N1CCC[C@H]1C(=O)N[C@@H](CCCCN)C(=O)Nc1ccc([N+](=O)[O-])cc1 [Lys P1 substrate] (HELM PEPTIDE1{[O=C(O)CCC(=O)[*:2]].A.A.P.K.[O=[N+]([O-])c1ccc(N[*:1])cc1]}$$$$V2.0) | about 3 times |  | 
C[C@H](NC(=O)CCC(=O)O)C(=O)N[C@@H](C)C(=O)N1CCC[C@H]1C(=O)N[C@@H](Cc1ccccc1)C(=O)Nc1ccc([N+](=O)[O-])cc1 [succinyl-AAPF-pNA, N-succinyl-alanine-alanine-proline-phenylalanyl-p-nitroanalide] (HELM PEPTIDE1{[O=C(O)CCC(=O)[*:2]].A.A.P.F.[O=[N+]([O-])c1ccc(N[*:1])cc1]}$$$$V2.0) |  | 6×10^4 fold | 300000
